How the values were obtained:
[1] = tested on: hTR in the context of the native telomerase enzyme; test: RNase H cleavage of hTR directed by antisense DNA oligonucleotides in native telomerase; format: biochemical, human; conditions: for RNaseH Digestion?: antisense DNA oligo, cleavage of hTR in native RNP, Table II; for ability to direct RNase H cleavage of hTR: native telomerase enzyme
From the text: The regions were identified in two ways. The first way involved contacting samples containing human telomerase with a variety of DNA polynucleotides having sequences complementary to the sequence of hTR under hybridization conditions, contacting the telomerase with RNase H, which cleaves the RNA strand of an RNA-DNA duplex, and determining whether hTR had been cleaved. […] The second way involved oligo-decoration. […] Other accessible areas of hTR can be identified by similar assays using antisense polynucleotides whose sequences are substantially complementary to a nucleotide sequence selected from hTR.
A set of 17 contiguous antisense DNA oligonucleotides (30 mers) were tested for their ability to direct RNase H cleavage of hTR in the context of the native telomerase enzyme. […] Antisense oligonucleotides "14", "16", and "21" (see Table II) were tested as potential inhibitors of human telomerase ("hTase").
The accessible regions were "fine mapped" by using shorter antisense oligonucleotides to direct RNase H cleavage of hTR.

telomerase [2] = test: Capture of active telomerase on streptavidin beads by biotinylated 2'OMe antisense analogs; format: binding, human; conditions: for Capture? (2'OMe): biotinylated 2'OMe antisense RNA analog of the oligo, streptavidin beads; for Capture? (2'OMe) / Activity on beads: Table II; for Activity on beads: telomerase activity on beads after capture by 2'OMe analog; for capture of active telomerase on streptavidin beads: biotinylated 2'OMe analogs
From the text: On the bases of the antisense data, biotinylated 2'OMe antisense RNA analogs were designed for affinity purification of telomerase. The goal of the antisense affinity approach was to design ligands that afforded good purification and yield, while keeping the enzyme intact (i.e., active). Several 2'OMe ligands met our criteria (Table II, FIG. 1). […] These analogs were further refined via the synthesis of second generation antisense affinity ligands, which were designed to allow release of active telomerase (reversible ligands). Currently, our affinity scheme consists of two reversible antisense ligands, which are employed in series, and target two different regions of hTR. The first ligand is a disulfide version of 14ab which allows release of telomerase via dithiothreitol treatment. The second ligand contains the 21ab1 antisense sequence and plus a tail of "nonsense" sequence. hTR is released from the antisense ligand by a displacement DNA oligonucleotide, which is complementary to the entire length of the 21ab1 antisense affinity ligand.

telomerase [3] = test: Capture of telomerase on an affinity matrix; format: binding, human
[4] = tested on: telomerase ribonucleoprotein; test: Oligodecoration: native gel mobility shift with labeled 2'-O-methyl antisense polynucleotides; format: binding, human; conditions: radioactively labeled 2'-O-methyl antisense polynucleotide; altered mobility on native gel
Procedure: Oligodecoration was used to further identify accessible regions of the telomerase ribonucleoprotein. Radioactively labeled 2 0-methyl antisense polynucleotides were prepared and exposed to the telomerase ribonucleoprotein. The sample was incubated to allow the polynucleotide to bind to telomerase. Then the sample was run on a native gel. […] RP2 has the sequence CGG GCC AGC AGC TGA CA (SEQ ID NO:14).

[5] = tested on: human telomerase ("hTase"); test: Inhibition of human telomerase, standard primer elongation assay; format: biochemical; conditions: preincubation of partially purified nuclear or cytoplasmic extract with oligonucleotide

Substance	RNaseH Digestion? [1]	Capture? (2'OMe) (telomerase [2])	ability to direct RNase H cleavage of hTR [1]	other results
5' GCT CTA GAA TGA ACG GTG G 3' (antisense GCTCTAGAATGAACGGTGG; chemistry not given here) [Oligo 21ab, shorter antisense oligo of the "21" region]	yes	yes		
5' CTGACAGAGCCCAACTCTTC 3' (antisense CTGACAGAGCCCAACTCTTC; chemistry not given here) [Oligo 16ab, antisense 20 mer of the "16" region]	yes	yes	directed RNase H cleavage	Activity on beads (telomerase [2]): no
5' CGT TCC TCT TCC TGC G9C CT 3' [Oligo 14ab]	yes	yes	directed RNase H cleavage	capture of active telomerase on streptavidin beads (telomerase [2]): "captured" active telomerase; Activity on beads (telomerase [2]): yes
CGG GCC AGC AGC TGA CA (antisense CGGGCCAGCAGCTGACA; 2'-O-methyl, further chemistry not given here) [RP2]				ability to capture telomerase on an affinity matrix (telomerase [3]): demonstrated an ability to capture telomerase; binding to the telomerase ribonucleoprotein [4]: found to bind
5' CCTGCGGCCTGAAACGGTGA 3' (antisense CCTGCGGCCTGAAACGGTGA; chemistry not given here) [Oligo 14bc, antisense 20 mer of the "14" region]	no			
5' CATTTTTTGTTTGCTCTAGA 3' (antisense CATTTTTTGTTTGCTCTAGA; chemistry not given here) [20/21, antisense 20 mer]	yes			
5' GCTCTAGAATGAACGGTGGAAGGCGGCAGG 3' (antisense GCTCTAGAATGAACGGTGGAAGGCGGCAGG; chemistry not given here) [Oligo 21, antisense DNA 30 mer directed against nucleotides 137 to 166 of hTR]	yes		directed efficient cleavage of hTR	inhibition of hTase activity [5]: potent inhibition of hTase
5' CTGACAGAGCCCAACTCTTCGCGGTGGCAG 3' (antisense CTGACAGAGCCCAACTCTTCGCGGTGGCAG; chemistry not given here) [Oligo 16, antisense DNA 30 mer against hTR nucleotides 290-319]	yes		directed efficient cleavage of hTR	inhibition of hTase activity [5]: did not significantly affect hTase activity
5' CCAACTCTTCGCGGTGGCAG 3' (antisense CCAACTCTTCGCGGTGGCAG; chemistry not given here) [Oligo 16bc, antisense 20 mer of the "16" region]	yes	yes	directed RNase H cleavage	
5' CGTTCCTCTTCCTGCGGCCTGAAACGGTGA 3' (antisense CGTTCCTCTTCCTGCGGCCTGAAACGGTGA; chemistry not given here) [Oligo 14, antisense DNA 30 mer against hTR nucleotides 350-380]	yes		directed efficient cleavage of hTR	inhibition of hTase activity [5]: did not significantly affect hTase activity
5' GCT CTA G 3' [Oligo 21ab1]	yes	yes		capture of active telomerase on streptavidin beads (telomerase [2]): "captured" active telomerase; Activity on beads (telomerase [2]): yes
5' CGT TCC TCT TCC 3' (antisense CGTTCCTCTTCC; biotinylated 2'OMe, further chemistry not given here) [Oligo 14d, antisense 12 mer of the "14" region; biotinylated 2'OMe analog used for capture]	yes	yes	directed RNase H cleavage	capture of active telomerase on streptavidin beads (telomerase [2]): "captured" active telomerase; Activity on beads (telomerase [2]): yes
5' GCT CTA GAA TG 3' (antisense GCTCTAGAATG; chemistry not given here) [Oligo 21ab2, shorter antisense oligo of the "21" region]	yes	yes		
5' GCT CTA GAA TGA ACG 3' (antisense GCTCTAGAATGAACG; chemistry not given here) [Oligo 21ab3, shorter antisense oligo of the "21" region]	yes			

Source: patent publication US5846723A, “Methods for detecting the RNA component of telomerase” (Geron Corporation, priority 1996, dated 1998)
